This passage reports pIC50 results from patent US20120214822A1 (ASTRAZENECA AB, priority 2007, published 2012).

This experiment addresses human active recombinant p38α-6His tagged (Homo sapiens, UniProt Q16539). The experiment in a line: P38 Alpha Enzyme Assay (AlphaScreen, biotinylated-ATF2 substrate).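 Also: 0.5 nM final p38α, reaction started with ATP and run 45 min at 37 °C, phospho-ATF2 read by antibody-based AlphaScreen, background wells quenched with EDTA before ATP.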 It is filed as biochemical. Particulars: p38 alpha enzyme inhibition; means of replicate determinations; 4 h pre-incubation at 37° C.; SD of assay 0.2-0.3 log units.

Sequence of human active recombinant p38α-6His tagged (Q16539 whole entry): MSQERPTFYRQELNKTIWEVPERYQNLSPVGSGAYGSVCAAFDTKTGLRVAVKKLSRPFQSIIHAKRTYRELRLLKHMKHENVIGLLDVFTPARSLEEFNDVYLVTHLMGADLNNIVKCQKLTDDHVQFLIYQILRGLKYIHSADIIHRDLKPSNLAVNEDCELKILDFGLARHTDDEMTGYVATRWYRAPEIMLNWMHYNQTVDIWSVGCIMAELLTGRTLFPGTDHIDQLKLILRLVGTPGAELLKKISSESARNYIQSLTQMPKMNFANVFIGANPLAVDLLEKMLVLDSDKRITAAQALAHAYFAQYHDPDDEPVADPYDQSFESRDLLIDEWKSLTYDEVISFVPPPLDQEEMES

By pIC50 is commonly meant −log10 of the IC50, conventionally taken in molar units. In the case of `Cc1ccc(C(=O)NC2CC2)cc1-n1ccnc(N[C@H](CO)c2ccccc2)c1=O` [Example 80, N-Cyclopropyl-3-[3-[[(1S)-2-hydroxy-1-phenylethyl]amino]-2-oxo-1(2H)-pyrazinyl]-4-methyl-benzamide], the pIC50 stood at 7.9.

In the case of `Cc1ccc(C(=O)NC2CC2)cc1-n1ccnc(NC(C)(C)c2ccccc2OCCN2CCCCC2)c1=O` [Example 201, N-Cyclopropyl-4-methyl-3-[3-[[1-methyl-1-[2-[2-(1-piperidinyl)ethoxy]phenyl]ethyl]amino]-2-oxo-1(2H)-pyrazinyl]-benzamide], the pIC50 came out at 9.1.

As to `CC(C)(Nc1nccn(-c2cc(C(=O)NC3CC3)ccc2Cl)c1=O)c1ccccc1OCCNCCO` [Example 331, 4-Chloro-N-cyclopropyl-3-[3-{[1-(2-{2-[(2-hydroxyethyl)amino]ethoxy}phenyl)-1-methylethyl]amino}-2-oxopyrazin-1(2H)-yl]benzamide], the negative-log IC50 (pIC50) is on record as 9.6.

With `Cc1ccc(C(=O)NC2CC2)cc1-n1ccnc(NC(C)(C)c2ccccc2OCCN2CCN(C)CC2)c1=O` [Example 202, N-Cyclopropyl-4-methyl-3-[3-[[1-methyl-1-[2-[2-(4-methyl-1-piperazinyl)ethoxy]phenyl]ethyl]amino]-2-oxo-1(2H)-pyrazinyl]-benzamide], the pIC50 was found to be 9.2.

With `Cc1ccc(C(=O)NC2CC2)cc1-n1ccnc(NC(C)(C)c2ccccc2OC2CNC2)c1=O` [Example 215, N-Cyclopropyl-4-methyl-3-[3-[[1-[2-(3-azetidinyloxy)phenyl]-1-methylethyl]amino]-2-oxo-1(2H)-pyrazinyl]-benzamide], the pIC50 was determined as 9.6.

Consider `Cc1ccc(C(=O)NC2CC2)cc1-n1ccnc(N[C@@H](c2ccccc2)[C@@H](C)CNC(C)(C)CO)c1=O` [Example 193, N-Cyclopropyl-3-[3-[[(1R,2S)-3-[(2-hydroxy-1,1-dimethylethyl)amino]-2-methyl-1-phenylpropyl]amino]-2-oxo-1(2H)-pyrazinyl]-4-methyl-benzamide], for which the pIC50 was determined as 9.3.

As to `CNCCOc1ccccc1C1(Nc2nccn(-c3cc(C(=O)NC4CC4)ccc3C)c2=O)CC1` [Example 167, N-Cyclopropyl-4-methyl-3-[3-[[1-[2-[2-(methylamino)ethoxy]phenyl]cyclopropyl]amino]-2-oxo-1(2H)-pyrazinyl]-benzamide], the pIC50 stood at 9.7.

`Cc1ccc(C(=O)NC2CC2)cc1-n1ccnc(NC[C@@H](O)c2ccccc2)c1=O` [Example 56, N-Cyclopropyl-3-[3-[[(2S)-2-hydroxy-2-phenylethyl]amino]-2-oxo-1(2H)-pyrazinyl]-4-methyl-benzamide]: the negative-log IC50 (pIC50) is on record as 6.4.

`Cc1ccc(C(=O)NC2CC2)cc1-n1ccnc(NC(C)(C)c2ccccc2OCCNC[C@H](C)O)c1=O` [Example 213, N-Cyclopropyl-3-[3-[[1-[2-[2-[[(2S)-2-hydroxypropyl]amino]ethoxy]phenyl]-1-methylethyl]amino]-2-oxo-1(2H)-pyrazinyl]-4-methyl-6-benzamide]: the negative-log IC50 (pIC50) is recorded as 9.9.

With `Cc1ccc(C(=O)NC2CC2)cc1-n1ccnc(NC2(c3ccccc3OCCNCC(F)(F)F)CC2)c1=O` [Example 240, N-Cyclopropyl-4-methyl-3-[2-oxo-3-[[1-[2-[2-[(2,2,2-trifluoroethyl)amino]ethoxy]phenyl]cyclopropyl]amino]-1(2H)-pyrazinyl]-benzamide], the negative logarithm of the IC50 (pIC50) was found to be 8.8.

Regarding `Cc1ccc(C(=O)NC2CC2)cc1-n1ccnc(Sc2ccccc2)c1=O` [Example 117, N-Cyclopropyl-4-methyl-3-[2-oxo-3-(phenylthio)-1(2H)-pyrazinyl]-benzamide], the pIC50 was 6.8.

For the molecule `Cc1ccc(C(=O)NC2CC2)cc1-n1ccnc(Oc2ccccc2)c1=O` [Example 116, N-Cyclopropyl-4-methyl-3-(2-oxo-3-phenoxy-1(2H)-pyrazinyl)-benzamide], the pIC50 is reported as 6.4.

Take `Cc1ccc(C(=O)NC2CC2)cc1-n1ccnc(NC2(c3ccccc3OCCN3CCC(F)(F)C3)CC2)c1=O` [Example 244, N-Cyclopropyl-3-[3-[[1-[2-[2-(3,3-difluoro-1-pyrrolidinyl)ethoxy]phenyl]cyclopropyl]amino]-2-oxo-1(2H)-pyrazinyl]-4-methyl-benzamide]: the negative-log IC50 (pIC50) turned out to be 9.2.

Regarding `Cc1ccc(C(=O)NC2CC2)cc1-n1ccnc(NC2(c3ccccc3OCCNC3CCC3)CC2)c1=O` [Example 248, 3-[3-[[1-[2-[2-(cyclobutylamino)ethoxy]phenyl]cyclopropyl]amino]-2-oxo-1(2H)-pyrazinyl]-N-Cyclopropyl-4-methyl-benzamide], the negative-log IC50 (pIC50) is 10.

As for `Cc1ccc(C(=O)NC2CC2)cc1-n1ccnc(NC(C)(C)c2ccccc2OC(C)CN2CCN(C)CC2)c1=O` (stereo not shown) [Example 209, N-Cyclopropyl-4-methyl-3-[3-[[1-methyl-1-[2-[1-methyl-2-(4-methyl-1-piperazinyl)ethoxy]phenyl]ethyl]amino]-2-oxo-1(2H)-pyrazinyl]-benzamide], the pIC50 is listed as 8.9.

For `Cc1ccc(C(=O)NC2CC2)cc1-n1ccnc(NCc2cccc(Cl)c2)c1=O` [Example 130, 3-[3-[[(3-Chlorophenyl)methyl]amino]-2-oxo-1(2H)-pyrazinyl]-N-cyclopropyl-4-methyl-benzamide], the negative-log IC50 (pIC50) is 8.2.

On to `Cc1ccc(C(=O)NC2CC2)cc1-n1ccnc(NCCCN2CCOCC2)c1=O` [Example 6, N-Cyclopropyl-4-methyl-3-[3-[[3-(4-morpholinyl)propyl]amino]-2-oxo-1(2H)-pyrazinyl]-benzamide], for which the negative-log IC50 (pIC50) turned out to be 6.5.

As to `Cc1ccc(C(=O)NC2CC2)cc1-n1ccnc(N[C@@H](c2ccccc2)[C@@H](C)CN2CCC(F)(F)CC2)c1=O` [Example 175, N-Cyclopropyl-3-[3-[[(1R,2S)-3-(4,4-difluoro-1-piperidinyl)-2-methyl-1-phenylpropyl]amino]-2-oxo-1(2H)-pyrazinyl]-4-methyl-benzamide], the pIC50 turned out to be 9.

Consider `Cc1ccc(C(=O)NC2CC2)cc1-n1ccnc(N[C@@H](c2ccccc2)[C@@H](C)CN2CCC(F)CC2)c1=O` [Example 174, N-Cyclopropyl-3-[3-[[(1R,2S)-3-(4-fluoro-1-piperidinyl)-2-methyl-1-phenylpropyl]amino]-2-oxo-1(2H)-pyrazinyl]-4-methyl-benzamide], for which the negative-log IC50 (pIC50) was 8.9.

With `Cc1c(F)cc(C(=O)NC2CC2)cc1-n1ccnc(N[C@@H](c2ccccc2)[C@@H](C)CN2CCCCC2)c1=O` [Example 329, N-Cyclopropyl-3-fluoro-4-methyl-5-[3-{[(1R,2S)-2-methyl-1-phenyl-3-piperidin-1-ylpropyl]amino}-2-oxopyrazin-1(2H)-yl]benzamide], the negative-log IC50 (pIC50) was determined as 9.6.

In the case of `Cc1ccc(C(=O)NC2CC2)cc1-n1ccnc(N[C@@H](c2ccccc2)[C@@H](C)CN2CCC3(CC2)CNC3)c1=O` [Example 188, N-Cyclopropyl-3-[3-[[(1R,2S)-3-(2,7-diazaspiro[3.5]non-7-yl)-2-methyl-1-phenylpropyl]amino]-2-oxo-1(2H)-pyrazinyl]-4-methyl-benzamide], the negative-log IC50 (pIC50) was 9.2.

Regarding `Cc1ccc(C(=O)NC2CC2)cc1-n1ccnc(N[C@@H](c2ccccc2)[C@@H](C)CNC(C)(C)C)c1=O` [Example 153, N-Cyclopropyl-3-[3-[[(1R,2S)-3-[(1,1-dimethylethyl)amino]-2-methyl-1-phenylpropyl]amino]-2-oxo-1(2H)-pyrazinyl]-4-methyl-benzamide], the pIC50 was determined as 9.2.

In the case of `Cc1ccc(C(=O)NC2CC2)cc1-n1ccnc(NC2(c3ccccc3OCCN3CCCN(C)CC3)CC2)c1=O` [Example 235, N-Cyclopropyl-3-[3-[[1-[2-[2-(hexahydro-4-methyl-1H-1,4-diazepin-1-yl)ethoxy]phenyl]cyclopropyl]amino]-2-oxo-1(2H)-pyrazinyl]-4-methyl-benzamide], the pIC50 is 9.7.

Consider `Cc1ccc(C(=O)NC2CC2)cc1-n1ccnc(NCc2cccc(C(=O)NC3CC3)c2)c1=O` [Example 69, N-Cyclopropyl-3-[3-[[[3-[(cyclopropylamino)carbonyl]phenyl]methyl]amino]-2-oxo-1(2H)-pyrazinyl]-4-methyl-benzamide], for which the pIC50 is given as 6.2.

With `Cc1c(F)cc(C(=O)NC2CC2)cc1-n1ccnc(NC(C)(C)c2ccccc2SCCNCCO)c1=O` [Example 322, N-Cyclopropyl-3-fluoro-5-[3-({1-[2-({2-[(2-hydroxyethyl)amino]ethyl}sulfanyl)phenyl]-1-methylethyl}amino)-2-oxopyrazin-1(2H)-yl]-4-methylbenzamide], the pIC50 is on record as 9.8.

As for `Cc1ccc(C(=O)NC2CC2)cc1-n1ccnc(N(C)CCc2ccccc2)c1=O` [Example 66, N-Cyclopropyl-4-methyl-3-[3-[methyl(2-phenylethyl)amino]-2-oxo-1(2H)-pyrazinyl]benzamide], the negative logarithm of the IC50 (pIC50) is 6.5.

Turning to `Cc1ccc(C(=O)NC2CC2)cc1-n1ccnc(NCCCc2ccccc2)c1=O` [Example 36, N-Cyclopropyl-4-methyl-3-[2-oxo-3-[(3-phenylpropyl)amino]-1(2H)-pyrazinyl]-benzamide], the pIC50 was 6.8.

For the molecule `Cc1c(F)cc(C(=O)NC2CC2)cc1-n1ccnc(NC(C)(C)c2ccccc2OCCNC(C)C)c1=O` [Example 254, N-Cyclopropyl-3-fluoro-4-methyl-5-[3-[[1-methyl-1-[2-[2-[(1-methylethyl)amino]ethoxy]phenyl]ethyl]amino]-2-oxo-1(2H)-pyrazinyl]-benamide], the pIC50 is reported as 10.2.

Take `Cc1cccc(C2CCCN2c2nccn(-c3cc(C(=O)NC4CC4)ccc3C)c2=O)c1` (stereo not shown) [Example 96, N-Cyclopropyl-4-methyl-3-[3-[2-(3-methylphenyl)-1-pyrrolidinyl]-2-oxo-1(2H)-pyrazinyl]-benzamide]: the negative-log IC50 (pIC50) is recorded as 8.5.

Turning to `Cc1c(F)cc(C(=O)NC2CC2)cc1-n1ccnc(NC(C)(C)c2ccccc2OCCNCCO)c1=O` [Example 253, N-Cyclopropyl-3-fluoro-5-[3-[[1-[2-[2-[(2-hydroxyethyl)amino]ethoxy]phenyl]-1-methylethyl]amino]-2-oxo-1(2H)-pyrazinyl]-4-methyl-benzamide], the pIC50 is given as 10.2.

With `Cc1ccc(C(=O)NC2CC2)cc1-n1ccnc(-c2ccccc2)c1=O` [Example 114, N-Cyclopropyl-4-methyl-3-(2-oxo-3-phenyl-1(2H)-pyrazinyl)-benzamide], the pIC50 came to 6.6.
